Experiment [1] deals with T1, human soluble TNFR1 (sTNFR1) (Homo sapiens, UniProt P19438).
T1 construct: made in house; host or cells: Sf21 (baculovirus)
T1 sequence (P19438 with tags, fused parts or gaps): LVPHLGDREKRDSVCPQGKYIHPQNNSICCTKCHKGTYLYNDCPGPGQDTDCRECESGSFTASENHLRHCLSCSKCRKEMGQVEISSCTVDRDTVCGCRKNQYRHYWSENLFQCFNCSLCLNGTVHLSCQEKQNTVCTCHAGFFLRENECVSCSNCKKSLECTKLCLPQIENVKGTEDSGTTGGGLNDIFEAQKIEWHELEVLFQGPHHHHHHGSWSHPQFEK
The experiment in a line: Human sTNFR1-peptide displacement assay (LanthaScreen Eu TR-FRET binding assay). The essentials:
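Readout is the 665/615 nm TR-FRET ratio (Eu anti-His donor, streptavidin-Alexa647 acceptor), normalized to DMSO and saturating displacer, fit by Morrison-based five-parameter logistic for Kd^app. His-tagged sTNFR1 (1-211) prebound to 100 nM biotinylated peptide SEQ ID NO.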

Experiment [2] deals with T2, TNFα-induced NF-κB signal transduction pathway (TNFR1 signaling) in THP-1 cells (Homo sapiens, UniProt P19438).
T2 sequence (P19438 30-455): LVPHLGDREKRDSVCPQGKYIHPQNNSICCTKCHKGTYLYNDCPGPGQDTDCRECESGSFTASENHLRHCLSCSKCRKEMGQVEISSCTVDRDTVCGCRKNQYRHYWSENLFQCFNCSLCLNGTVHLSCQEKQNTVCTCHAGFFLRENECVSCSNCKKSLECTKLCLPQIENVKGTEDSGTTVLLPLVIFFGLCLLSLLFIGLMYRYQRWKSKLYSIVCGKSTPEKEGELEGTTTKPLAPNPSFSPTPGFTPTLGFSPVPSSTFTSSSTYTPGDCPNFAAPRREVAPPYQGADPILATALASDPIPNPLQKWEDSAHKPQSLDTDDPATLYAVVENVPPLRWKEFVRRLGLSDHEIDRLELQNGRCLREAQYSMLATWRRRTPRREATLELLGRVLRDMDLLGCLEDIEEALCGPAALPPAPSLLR
The experiment in a line: THP-1 Lucia NF-κB reporter cell assay, inhibition of TNFα-induced NF-κB signaling. In kind it is cell-based. The conditions noted are these: THP-1 NF-κB Lucia reporter cells, 10 ng/mL TNFα, 16-18 h, secreted luciferase; read-out: THP-1 IC50. The essentials: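 THP-1 Lucia NF-κB cells, 20k/well, no selection antibiotics; peptide pre-inc 1 h 37 °C; + recombinant human TNFα 10 ng/mL final; o.n.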

Among the data in US20240287138A1, “CYCLIC PEPTIDES FOR INHIBITING TNF RECEPTOR 1 ACTIVITY” (Merck Sharp & Dohme LLC, priority 2023, published 2024) are Kd and IC50 values, retold here.

Where two headings read alike, the source gives them in different places. Numbered stars: 1 amine (or outer) side, 2 acyl side, 3 side chain; on linkers, the order of the positions; unused ones are H or OH. Bridge positions count the residues as written; N and C are the ends. Square brackets hold non-standard residues; d marks the D form. Peptide text beside a SMILES is read from it. * marks the point of attachment. Ala(2-carboxypyrimidin-5-yl) = N[C@@H](Cc1cnc(C(=O)O)nc1)C(=O)O; Trp(βS-Me,7-OMe) = COc1cccc2c([C@H](C)[C@H](N)C(=O)O)c[nH]c12; Phe(3R-OH) = O=C([C@@H](N[*:1])[C@H](O[*:3])c1ccccc1)[*:2]; Trp(1-CH2COOH) = N[C@@H](Cc1cn(CC(=O)O)c2ccccc12)C(=O)O; X44 = NC(=O)c1ccc([C@@H](O)[C@H](N[*:1])C(=O)[*:2])cc1; Phe(4-SO2NH2) = N[C@@H](Cc1ccc(S(N)(=O)=O)cc1)C(=O)O; Trp(7-CN) = N#Cc1cccc2c(C[C@H](N)C(=O)O)c[nH]c12; Trp(7-Cl) = N[C@@H](Cc1c[nH]c2c(Cl)cccc12)C(=O)O; Phe(4-CONH2) = NC(=O)c1ccc(C[C@H](N)C(=O)O)cc1; Phe(4-COOH) = N[C@@H](Cc1ccc(C(=O)O)cc1)C(=O)O; Trp(7-aza) = N[C@@H](Cc1c[nH]c2ncccc12)C(=O)O; Pip(5R-OH) = O=C(O)[C@@H]1CC[C@@H](O)CN1; X1 = O=C([C@@H]1CC[C@H](N[*:1])C1)[*:2]; 4Pal = N[C@@H](Cc1ccncc1)C(=O)O; Ethyl(2-NMe3+) = C[N+](C)(C)CC*; NMeE = CN[C@@H](CCC(=O)O)C(=O)O; dHyp = O=C(O)[C@H]1C[C@H](O)CN1; αMeS = C[C@](N)(CO)C(=O)O; Nle = CCCC[C@H](N)C(=O)O; Sar = CNCC(=O)O

With `CCCC[C@@H]1NC(=O)[C@@H]2CC[C@@H](C2)NC(=O)[C@H]([C@@H](C)c2c[nH]c3c(OC)cccc23)NC(=O)CN(C)C(=O)[C@H](Cc2ccc(C(=O)O)cc2)NC(=O)[C@H](Cc2ccc(C(N)=O)cc2)NC(=O)[C@](C)(CO)NC(=O)[C@H](Cc2c[nH]c3c(Cl)cccc23)NC(=O)[C@H](Cc2cnc(C(=O)O)nc2)NC(=O)[C@H](CC(N)=O)NC(=O)[C@H]2C[C@H](O)CN2C(=O)[C@H](Cc2c[nH]c3ccccc23)NC(=O)[C@@H]2CC[C@@H](O)CN2C(=O)[C@H](Cc2ccncc2)NC1=O` [SEQ ID NO. 88] (cyclo([4Pal][Pip(5R-OH)]W[dHyp]N[Ala(2-carboxypyrimidin-5-yl)][Trp(7-Cl)][αMeS][Phe(4-CONH2)][Phe(4-COOH)][Sar][Trp(βS-Me,7-OMe)][X1][Nle])), the Kd in experiment [1] came to 0.2 nM. For the same molecule, in experiment [2], the IC50 worked out at 1.9 nM.
In experiment [1], `CCCC[C@@H]1NC(=O)CSC[C@@H](C(N)=O)NC(=O)[C@H]([C@@H](C)c2c[nH]c3c(OC)cccc23)NC(=O)CN(C)C(=O)[C@H](Cc2ccc(O)cc2)NC(=O)[C@H](Cc2ccc(C(N)=O)cc2)NC(=O)[C@](C)(CO)NC(=O)[C@H](Cc2c[nH]c3c(Cl)cccc23)NC(=O)[C@H](Cc2ccc(C(=O)O)cc2)NC(=O)[C@H](CC(N)=O)NC(=O)[C@H]2C[C@H](O)CN2C(=O)[C@H](Cc2c[nH]c3ccccc23)NC(=O)[C@@H]2CC[C@@H](O)CN2C(=O)[C@H](Cc2ccncc2)NC1=O` [SEQ ID NO. 185] ({CH2CO}-[Nle][4Pal][Pip(5R-OH)]W[dHyp]N[Phe(4-COOH)][Trp(7-Cl)][αMeS][Phe(4-CONH2)]Y[Sar][Trp(βS-Me,7-OMe)]C-NH2; thioether N-14) returned an IC50 of 0.2 nM and a Kd of 0.16 nM. The IC50 in experiment [2] was 0.9 nM.
Regarding `CCCC[C@@H]1NC(=O)[C@@H]2CC[C@@H](C2)NC(=O)[C@H]([C@@H](C)c2c[nH]c3c(OC)cccc23)NC(=O)CN(C)C(=O)[C@H](Cc2ccc(C(N)=O)cc2)NC(=O)[C@H](Cc2ccc(S(N)(=O)=O)cc2)NC(=O)[C@](C)(CO)NC(=O)[C@H](Cc2c[nH]c3c(C#N)cccc23)NC(=O)[C@H](Cc2ccc(C(=O)O)cc2)NC(=O)[C@H](CC(N)=O)NC(=O)[C@H]2C[C@H](OCC[N+](C)(C)C)CN2C(=O)[C@H](Cc2cn(CC(=O)O)c3ccccc23)NC(=O)[C@@H]2CC[C@@H](O)CN2C(=O)[C@H](Cc2ccncc2)NC1=O` [SEQ ID NO. 136] (cyclo([4Pal][Pip(5R-OH)][Trp(1-CH2COOH)][dHyp](Ethyl(2-NMe3+))N[Phe(4-COOH)][Trp(7-CN)][αMeS][Phe(4-SO2NH2)][Phe(4-CONH2)][Sar][Trp(βS-Me,7-OMe)][X1][Nle])), the Kd in experiment [1] is 0.07 nM. Moreover, in experiment [2], the IC50 was 0.4 nM.
In the case of `CCCC[C@@H]1NC(=O)CSC[C@@H](C(N)=O)NC(=O)[C@H]([C@@H](C)c2c[nH]c3c(OC)cccc23)NC(=O)CN(C)C(=O)[C@H](Cc2ccc(O)cc2)NC(=O)[C@H](Cc2ccc(C(=O)O)cc2)NC(=O)[C@](C)(CO)NC(=O)[C@H](Cc2c[nH]c3c(Cl)cccc23)NC(=O)[C@H](Cc2ccncc2)NC(=O)[C@H](CC(N)=O)NC(=O)[C@H](CCC(=O)O)N(C)C(=O)[C@H](Cc2c[nH]c3ncccc23)NC(=O)[C@H]([C@H](O)c2ccccc2)NC(=O)[C@H](Cc2ccncc2)NC1=O` [SEQ ID NO. 211] ({CH2CO}-[Nle][4Pal][Phe(3R-OH)][Trp(7-aza)][NMeE]N[4Pal][Trp(7-Cl)][αMeS][Phe(4-COOH)]Y[Sar][Trp(βS-Me,7-OMe)]C-NH2; thioether N-14), the IC50 in experiment [1] is 0.79 nM; in experiment [2], 3.3 nM. This molecule also gave a Kd in experiment [1] of 0.63 nM.
Take `CCCC[C@@H]1NC(=O)[C@@H]2CC[C@@H](C2)NC(=O)[C@H]([C@@H](C)c2c[nH]c3c(OC)cccc23)NC(=O)CN(C)C(=O)[C@H]([C@H](O)c2ccc(C(N)=O)cc2)NC(=O)[C@H](Cc2ccc(S(N)(=O)=O)cc2)NC(=O)[C@](C)(CO)NC(=O)[C@H](Cc2c[nH]c3c(C#N)cccc23)NC(=O)[C@H](Cc2ccc(C(=O)O)cc2)NC(=O)[C@H](CC(N)=O)NC(=O)[C@H]2C[C@H](O)CN2C(=O)[C@H](Cc2cn(CC(=O)O)c3ccccc23)NC(=O)[C@@H]2CC[C@@H](O)CN2C(=O)[C@H](Cc2ccncc2)NC1=O` [SEQ ID NO. 210] (cyclo([4Pal][Pip(5R-OH)][Trp(1-CH2COOH)][dHyp]N[Phe(4-COOH)][Trp(7-CN)][αMeS][Phe(4-SO2NH2)][X44][Sar][Trp(βS-Me,7-OMe)][X1][Nle])): the Kd in experiment [1] (displacement of biotinylated peptide SEQ ID NO. 1 from sTNFR1, 20 point titration, 5-parameter fit based on Morrison equation (tight binding), read-out: TR-FRET Kd^app) stood at 0.12 nM. Further, the IC50 in experiment [2] was determined as 0.5 nM.
